Experimental findings from patent US6806266B1 (priority 1999, dated 2004) are described below.

In one series the test system is human AGP (hα1AGP). The series is classed as binding. The settings on record: equimolar solution (20 μmol/L) of test compound and human AGP, PBS pH=7.4, 37° C., two hours after mixing with DCC; HPLC peak area ratio.
Series [1] deals with human epidermal cancer cell line A431. It counts as cell-based. As to conditions: A431 cells. As to the method:
After the removal of the culture supernatant, the cells were washed with PBS(−), detached in an aqueous solution of 0.25% of Trypsin (GIBCO BRL) and 0.02% of ethylenediaminetetraacetic acid (Wako Pure Chemical Industries, Ltd.), then fixed at a density of 10^6 cells/mL with a 70% aqueous solution of ethanol and stored in a cold room at 4° C. Ethanol was removed by centrifugation from the fixed cells, and then the fixed cells were washed with PBS(−). The cells were treated at 37° C. for 30 minutes with a 0.25 mg/mL PBS(−)solution of ribonuclease A type 1-A (Sigma) containing 0.1% of Nonidet P-40 (Nacalai Tesque, Inc.), and then a solution of propidiumiodide (Sigma) in 0.1% NP-40/PBS(−) was added into the cells at a final concentration of 50 μg/mL, and the cells were stained in ice for at least 20 minutes.
A DNA histogram was taken by EPICS ELITE Flow Cytometer, and the cell cycle distribution was analyzed by use of MultiCycle Program.
In the method shown in Test Example 3, the G2 stage and the M stage of the cell cycle can not be distinguished from each other, and thus the distrubution of the G2 stage combined with that of the M stage (G2 stage+M stage) is expressed in percentage.

The test system of series [2] is human lung cancer cell line A-549. In words: Test for inhibitory activity on cell growth in human lung cancer cell line A-549. As to conditions: A549, 72 h, read-out: Inhibitory activity on cell growth (IC50/μmol/L).
The mark [3] stands for this setting: Cisplatin 20 μmol/L + test compound 50 nmol/L, 8 hours.

Molecules are shown by their SMILES. Where two headings read alike, the source gives them in different places.

Experimental for human AGP (hα1AGP): A solution of the test compound in DMSO was added to an isotonic phosphate buffer (PBS, pH=7.4) containing human AGP, to prepare an equimolar solution (20 μmol/L) of the test compound and human AGP. The solution was pre-incubated at 37° C. for 15 minutes and then mixed with an equal volume of 4 mg/mL of DCC in PBS, and incubation was further continued. After two hours from mixing, a part of the solution was sampled and centrifuged (4° C., 20000×g, 2 minutes) to precipitate the charcoal, and the supernatant was subjected to HPLC analysis. Separately, an equimolar solution (20 μmol/L) of the test compound and human AGP was mixed with an equal volume of PBS (pH=7.4), and then the mixed solution was subjected as a DCC-untreated sample to HPLC analysis. The ratio of the peak area of the DCC-treated sample to the average peak area of the DCC-untreated sample (the solution mixed with PBS) was calculated as the degree of binding (%).

Turning to `CN[C@@H]1C[C@H]2O[C@@](C)([C@@H]1OC)n1c3ccccc3c3c4c(c5c6ccccc6n2c5c31)C(=O)N[C@@H]4O` [UCN-01], in the series with human AGP (hα1AGP), the “Degree of binding to hα1AGP (%)” value stood at 76.8%. In series [1] (setting [3]), the “Cell cycle distribution (%) G1 stage” value was 31.9%, the “Cell cycle distribution (%) G2 stage + M stage” value turned out to be 27.6% and the “Cell cycle distribution (%) S stage” value is listed as 40.5%. Besides, the “abrogation of accumulation action at the G2 stage and S stage” value in series [1] (in combination with Cisplatin (20 μmol/L)) is “a decrease in the S stage and an increase in the G1 stage”. In addition, the IC50 in series [2] was determined as 0.018 µmol/L.
For `N.N.[Cl][Pt][Cl]` [Cisplatin], in series [1] (Cisplatin 20 μmol/L alone), the “Cell cycle distribution (%) G1 stage” value came out at 5.5%, the “Cell cycle distribution (%) G2 stage + M stage” value is given as 17.5% and the “Cell cycle distribution (%) S stage” value is given as 77.0%. For the same compound, the “accumulation action at the G2 stage or S stage (cell cycle distribution versus untreated group)” value in series [1] (only Cisplatin (20 μmol/L)) was “An increase in the S stage, an increase in (G2 stage+M stage) and a decrease in the G1 stage”.
